Laboratory results: patent US11419869B2, “Dosage forms and regimens for amino acid compounds” (Pliant Therapeutics, Inc., priority 2019, dated 2022)

Experiments:
[1] = test system: normal bronchial epithelial cell adhesion to LAP; assay: normal bronchial epithelial cell adhesion to LAP (FIG. 3A); type: cell-based
[2] = test system: IPF-derived lung fibroblasts; assay: cell adhesion in IPF-derived lung fibroblasts (FIG. 3B); type: cell-based
[3] = target: recombinant human integrin αvβ6 (Homo sapiens (Human), UniProt P06756+P18564); assay: Solid Phase Integrin αvβ6 Binding Assay (Examples B1, B2); details: TGFβ1 LAP ligand, values given in four ranges, read-out: αvβ6 Inhibition IC50 (nM)-range
Chain of recombinant human integrin αvβ6 (P06756 31-992): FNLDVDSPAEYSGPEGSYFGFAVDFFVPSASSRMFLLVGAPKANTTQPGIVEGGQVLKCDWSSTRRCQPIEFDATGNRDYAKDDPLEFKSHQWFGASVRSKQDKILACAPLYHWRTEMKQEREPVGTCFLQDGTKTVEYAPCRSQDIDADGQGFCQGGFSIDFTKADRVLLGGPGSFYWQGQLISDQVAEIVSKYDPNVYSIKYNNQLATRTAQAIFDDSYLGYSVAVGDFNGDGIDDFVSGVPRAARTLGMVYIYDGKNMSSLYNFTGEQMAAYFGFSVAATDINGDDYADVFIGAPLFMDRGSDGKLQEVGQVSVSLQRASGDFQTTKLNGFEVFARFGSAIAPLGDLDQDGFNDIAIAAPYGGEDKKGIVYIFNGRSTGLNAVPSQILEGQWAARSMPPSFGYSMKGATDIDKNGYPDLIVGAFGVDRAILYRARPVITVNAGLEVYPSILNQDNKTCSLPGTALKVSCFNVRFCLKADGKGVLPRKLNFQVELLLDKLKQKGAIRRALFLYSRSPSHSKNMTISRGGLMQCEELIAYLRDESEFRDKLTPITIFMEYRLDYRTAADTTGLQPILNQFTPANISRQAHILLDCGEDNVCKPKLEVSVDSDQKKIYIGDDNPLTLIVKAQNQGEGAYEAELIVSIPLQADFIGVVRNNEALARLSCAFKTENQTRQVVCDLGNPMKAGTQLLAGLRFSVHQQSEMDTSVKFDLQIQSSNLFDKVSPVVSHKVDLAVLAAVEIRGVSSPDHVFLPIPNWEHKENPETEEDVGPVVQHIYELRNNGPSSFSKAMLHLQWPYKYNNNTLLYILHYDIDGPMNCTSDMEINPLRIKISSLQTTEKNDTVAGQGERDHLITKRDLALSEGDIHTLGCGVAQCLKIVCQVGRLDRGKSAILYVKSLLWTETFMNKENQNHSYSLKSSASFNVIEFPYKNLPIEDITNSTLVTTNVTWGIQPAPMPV
Chain of recombinant human integrin αvβ6 (P18564 22-707): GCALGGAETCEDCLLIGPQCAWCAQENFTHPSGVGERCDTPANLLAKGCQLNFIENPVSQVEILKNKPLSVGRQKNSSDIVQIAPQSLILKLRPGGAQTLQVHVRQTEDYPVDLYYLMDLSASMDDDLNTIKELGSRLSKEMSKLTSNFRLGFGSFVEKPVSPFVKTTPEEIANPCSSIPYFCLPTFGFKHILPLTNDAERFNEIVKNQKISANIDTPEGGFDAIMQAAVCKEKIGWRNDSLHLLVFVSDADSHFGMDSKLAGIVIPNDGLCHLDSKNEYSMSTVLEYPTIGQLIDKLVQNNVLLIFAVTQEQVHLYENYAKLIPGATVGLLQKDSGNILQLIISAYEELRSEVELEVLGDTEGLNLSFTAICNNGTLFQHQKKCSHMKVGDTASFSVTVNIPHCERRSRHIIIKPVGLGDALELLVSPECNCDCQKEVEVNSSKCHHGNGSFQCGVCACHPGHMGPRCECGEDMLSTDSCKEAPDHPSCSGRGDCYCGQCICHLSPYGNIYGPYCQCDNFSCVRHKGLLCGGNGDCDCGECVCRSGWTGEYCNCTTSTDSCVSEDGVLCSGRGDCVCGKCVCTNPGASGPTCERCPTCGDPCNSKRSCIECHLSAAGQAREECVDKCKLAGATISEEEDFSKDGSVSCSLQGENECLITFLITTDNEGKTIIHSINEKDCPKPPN
Outline: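 Plates coated with recombinant human αvβ6 (2 μg/mL) compete compound against recombinant TGFβ1 LAP (0.67 μg/mL) in TBS binding buffer with 0.5 mM MnCl2, 2 h at 25 °C. Bound LAP detected with biotin-anti-hLAP and peroxidase-streptavidin; IC50 by four-parameter logistic regression.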

[4] = test system: normal (healthy) human bronchial epithelial cells; assay: LAP adhesion binding assay, normal human bronchial epithelial cells; type: cell-based; details: cell index (electrical impedance), FIG. 3A
Description: Two latency associated peptide (LAP) adhesion binding assays were devised using primary human lung cells, including normal (healthy) human bronchial epithelial cells and human lung fibroblasts (healthy and IPF).
Human bronchial epithelial cells are known to express αvβ6 integrin in culture. Human bronchial epithelial cells were prepared for the assay by dissociation with trypsin/EDTA and were then seeded at 20,000 cells per well on 96 well plates (ACEA Bioscience E-plate View, Acea Biosciences; San Diego, Calif.) previously coated with 5 μg/ml of recombinant human LAP (R&D Systems; Minneapolis, Minn.) and blocked with 4% bovine serum albumin. Cell index (electrical impedance) was measured to assess cell attachment/spreading every 3 minutes for 24 hours at 37° C./5% CO2 using the xCELLigence RTCA MP Instrument (Acea Biosciences; San Diego, Calif.).

SMAD3 phosphorylation = assay: PSMAD3/SMAD3 in healthy mice treated for 4 days; type: in vivo; details: 4 days of treatment
Source text: It has been previously shown that inhibition of αvβ6 in the lung can be detected though measurement of phospho-SMAD (pSMAD) in alveolar macrophages. Alveolar macrophages are known to operate in a unique niche in the lung, distinct from interstitial macrophages. SMAD3 is a downstream target of the active TGF-β cytokine binding its receptor and in alveolar macrophages it is phosphorylated by homoeostatic levels of TGF-β. Accordingly, it was desirable to know whether inhibition of TGF-β activation using the disclosed compounds would result in reduced SMAD2 and SMAD3 phosphorylation.
FIG. 4A is a graph of PSMAD3/SMAD3 in lung tissue from healthy mice administered PBS vehicle and varying levels of compound 5 for 4 days. FIG. 4B is a graph of PSMAD3/SMAD3 in BALF drawn from the same healthy mice administered PBS vehicle and varying levels of compound 5 for 4 days.

[5] = test system: Type I Collagen gene Col1a1 expression; assay: Precision cut lung slices, mice under acute bleomycin exposure (Example B8); type: cell-based; details: 3 days culture, normalized to DMSO, FIG. 5A
Description: Mice (C57BL/6) were administered 3 U/kg of bleomycin (Teva Pharmaceuticals; North Wales, Pa.) on day 0 via oropharyngeal aspiration while under anesthesia. On day 14, precision cut lung slices were obtained. Following euthanization, 2% low gelling temp agarose was injected into the mouse lungs via the trachea. […] The lobes were then subjected to precision slicing to obtain samples for culture using a microtome (Compresstome VF-300-0Z, Precisionary; Greenville, N.C.). Individual slices were distributed in a multiwell culture plate and cultured for 3 days under control (DMSO) and test compound conditions.

pSMAD2/SMAD2 ratio = assay: Precision cut lung slices from human IPF lung tissue, pSMAD2/SMAD2 ratio; type: cell-based; details: PCLS from 3 IPF lung tissues, seven days, Compound 5 at 1.82 μM, FIG. 6F
Description: PCLS from 3 IPF lung tissues were cultured for seven days with Compound 5. […] The ratio of pSMAD2/SMAD2 is also graphed for the PCLS in the presence of 0.1% DMSO control, and an Alk5 inhibitor at 1 μM

COCCN(CCCCc1ccc2c(n1)NCCC2)CC[C@H](Nc1ncnc2ccccc12)C(=O)O [Compound 5, (S)-4-((2-methoxyethyl) (4-(5,6,7,8-tetrahydro-1,8-naphthyridin-2-yl)butyl)amino)-2-(quinazolin-4-ylamino) butanoic acid]
normal bronchial epithelial cell adhesion to LAP [1]: substantially inhibited
cell adhesion in the IPF-derived lung fibroblasts [2]: substantially inhibited
IC50 [3]: < 50 nM
normal bronchial epithelial cell adhesion to LAP [4]: substantially inhibited
PSMAD3/SMAD3 in lung tissue (SMAD3 phosphorylation; FIG. 4A): approximately 50 % of the untreated levels
PSMAD3/SMAD3 in BALF (SMAD3 phosphorylation; cells isolated from BALF, FIG. 4B): approximately 50 % of the untreated levels
Type I Collagen gene Col1a1 expression [5]: decreased Type I Collagen gene Col1a1 expression substantially
reduction of pSMAD2/SMAD2 ratio (pSMAD2/SMAD2 ratio): approximately 50%
